{
  "source": "paper PMC8448343",
  "about": "“Characterisation of novel functionality within the Blastocystis tryptophanase gene” (PLoS Neglected Tropical Diseases, 2021)",
  "molecular_target": "T1, BhTnaA (Blastocystis ST7-B tryptophanase) (Blastocystis hominis, UniProt D8M5A5)",
  "T1 construct": "gene GSBLH_T00003147001; pGEX-6P-1, N-terminal GST tag cut with PreScission protease; E. coli BL21",
  "T1 sequence (D8M5A5 1-544)": "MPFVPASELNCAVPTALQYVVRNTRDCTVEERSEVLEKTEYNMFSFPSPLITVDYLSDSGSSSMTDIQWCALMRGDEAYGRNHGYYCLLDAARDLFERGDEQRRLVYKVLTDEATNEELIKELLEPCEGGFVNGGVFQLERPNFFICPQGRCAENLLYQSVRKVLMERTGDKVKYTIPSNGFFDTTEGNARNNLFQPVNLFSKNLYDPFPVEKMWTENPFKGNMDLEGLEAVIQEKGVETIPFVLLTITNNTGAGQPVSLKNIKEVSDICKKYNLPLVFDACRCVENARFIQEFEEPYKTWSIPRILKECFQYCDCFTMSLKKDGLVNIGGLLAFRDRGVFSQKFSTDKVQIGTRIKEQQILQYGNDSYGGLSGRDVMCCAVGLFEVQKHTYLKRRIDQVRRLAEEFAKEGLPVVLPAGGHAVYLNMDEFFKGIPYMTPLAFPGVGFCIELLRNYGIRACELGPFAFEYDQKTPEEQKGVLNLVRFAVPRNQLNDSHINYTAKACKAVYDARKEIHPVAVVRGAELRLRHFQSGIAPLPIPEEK",
  "assay": "indole formation, Ehrlich's reagent, […] nm, Hanes-Woolf plot",
  "format": "biochemical",
  "conditions": "forward reaction (tryptophan to indole); PLP 0.165 mM; pH 7.5; 37 °C; toluene-layered; exact value only in Fig 4D",
  "data": [
    {"compound": "N[C@@H](Cc1c[nH]c2ccccc12)C(=O)O", "note": "[L-tryptophan]", "values": [
      {"measurement": "Km", "result": "> 3", "unit": "mM"}
    ]}
  ]
}
